This note sets out measurements from the supplement of paper PMC5412046.

Structures can show the parent of a compound that is named as a salt.

The subject of one assay is SB.mhdgc-1. The assay can be described thus: AC50 for growth inhibition (viability) (log10 M); higher = less potent. As to conditions: SB.mhdgc-1 (hereditary c.1380delA CDH1 gastric cancer). The method in brief: (§1)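 In 1536-well plates, each well held 500 patient-derived gastric cancer cells (hereditary or sporadic) in 5 μL medium. Compound in DMSO, 23 nL per well, was pinned in 11 threefold dilutions starting at a final 46 μM. Following 48 h of exposure, cells had CellTiter-Glo for 30 min at room temperature before ViewLux luminescence reading. Only high-quality curve classes from four-parameter fits of DMSO-normalised viability gave the log half-maximal activity concentration.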

For a further assay, the system named is SB.msgc-1. Described as above. Conditions: SB.msgc-1 (sporadic gastric cancer). The method in brief:
as §1

As for `COc1cc(N2CCC(C(N)=O)CC2)ccc1Nc1nc(N)c(Cl)c(Nc2ccccc2[S+](=O)([O-])C(C)C)n1`, the “AC50 for growth inhibition (log10 M)” value is -6.03 in the assay with SB.mhdgc-1 and -5.58 in the assay on SB.msgc-1.
The matching figures for `COc1cccc2c1C(=O)c1c(O)c3c(c(O)c1C2=O)C[C@@](O)(C(=O)CO)C[C@@H]3O[C@H]1C[C@H](N)[C@H](O[C@H]2CCCCO2)[C@H](C)O1` [Pirarubicin]: -6.08 and -5.68.
With `Oc1ccc(-c2ccc(-c3cc(Nc4cccc(CNC5CC5)c4)[nH]n3)cc2)c(O)c1` [TCS-2312], the “AC50 for growth inhibition (log10 M)” value is -6.28 in the assay with SB.mhdgc-1 and -5.03 in the assay with SB.msgc-1.
The matching figures for `C#Cc1cccc(Nc2ncnc3cc(OCCOC)c(OCCO)cc23)c1` [OSI-420]: -6.23 and -6.03.
For `COc1ccc(-c2ccc3cc(C(=O)O)ccc3c2)cc1C12CC3CC(CC(C3)C1)C2` [Adapalene], in that order: -5.28 and -5.23.
The matching figures for `Cc1cc(Nc2nc(N[C@@H](C)c3ccc(F)cc3)c(C#N)cc2F)n[nH]1` [AZ-960]: -4.73 and -4.68.
For `CNC(=O)c1cccc(-c2ccc3c(N4CCOC[C@@H]4C)nc(N4CCOC[C@@H]4C)nc3n2)c1` [AZD-2014], the “AC50 for growth inhibition (log10 M)” value in the assay with SB.mhdgc-1 is -7.33; in the assay with SB.msgc-1 it was -7.03.
For `O=C(c1ccc(Nc2nccc(-c3cc4ccccc4s3)n2)cc1)N1CCC(N2CCCC2)CC1` [IKK16], in that order: -5.08 and -4.88.
For `Cn1cnc2c(F)c(Nc3ccc(Br)cc3Cl)c(C(=O)NOCCO)cc21` [Selumetinib], in that order: -5.38 and -5.18.
The matching figures for `CC(C)N(CCCNC(=O)Nc1ccc(C(C)(C)C)cc1)C[C@H]1O[C@@H](n2cc(Br)c3c(N)ncnc32)[C@H](O)[C@@H]1O` [SGC0946]: -4.68 and -4.53.
Turning to `CC[C@H](CC#N)OC(=O)N[C@@H](C)c1cccc(NC(=O)Nc2ccc(-c3cnco3)c(OC)c2)c1` [AVN-944], the “AC50 for growth inhibition (log10 M)” value with SB.mhdgc-1 is -5.88; in the assay on SB.msgc-1 it was -5.23.
For `CCN(CC)CCNC(=O)c1ccc2nc(-c3ccccc3)c(-c3ccc(CN4CCC(n5c(=O)[nH]c6ccccc65)CC4)cc3)nc2c1` [Merck-22-6], in that order: -5.63 and -4.88.
For `O=[S+]([O-])(NCCNC/C=C/c1ccc(Br)cc1)c1cccc2cnccc12` [H-89], in that order: -4.88 and -4.73.
Regarding `CCCCCCNC(=O)N1\C=C(F)/C(=O)NC1=O` [Carmofur], the results for the “AC50 for growth inhibition (log10 M)” value in the assay on SB.mhdgc-1 and in the assay on SB.msgc-1 were -6.33 and -5.48, respectively.
For `Cc1nn(Cc2ccccc2Cl)c(C)c1CN(C)CC(O)COc1ccc(Cl)cc1` (stereo not drawn), in that order: -4.78 and -4.73.
Take `N#CC(=C(/N)Sc1ccccc1N)/C(C#N)=C(\N)Sc1ccccc1N` [U-0126]: the “AC50 for growth inhibition (log10 M)” value is -5.88 with SB.mhdgc-1 and -4.73 in the assay on SB.msgc-1.
For `COc1cc2c(NC3CCN(C(C)C)CC3)nc(C3CCCCC3)nc2cc1OCCCN1CCCC1` [UNC-0638], in that order: -5.58 and -4.78.
For `N[S+](=O)([O-])c1cccc2c1C(=O)c1cccc(O)c1C2=O` [LLL-12], in that order: -6.98 and -6.63.
The matching figures for `CCOc1cc2ncc(C#N)c(Nc3ccc(F)c(Cl)c3)c2cc1NC(=O)/C=C/CN(C)C` [Pelitinib]: -7.38 and -7.43.
As to `COc1ccc(Cc2nccc3cc(OC)c(OC)cc23)cc1OC` [Papaverine hydrochloride], the “AC50 for growth inhibition (log10 M)” value in the assay with SB.mhdgc-1 was -6.88; in the assay with SB.msgc-1, -4.73.
For `Cc1cnc(Nc2ccc(F)cc2Cl)nc1-c1c[nH]c(C(=O)N[C@H](CO)c2cccc(Cl)c2)c1`, in that order: -5.13 and -4.73.
The matching figures for `Cc1cc(CN2CCN(c3c(Br)cnc4[nH]c(-c5ccc(N6CCN(C)CC6)cc5)nc34)CC2)no1`: -4.63 and -4.68.
For `CCOC(=O)C/1=C(C)/NC(=S)NC1C2=CC=CC(=C2)O` (stereo not drawn) [Monastrol], in that order: -7.38 and -7.38.
As to `CC(C)C[C@@H](C(=O)N[C@H](C(=O)OC1CCCC1)c1ccccc1)[C@H](O)C(=O)NO` [Tosedostat], the “AC50 for growth inhibition (log10 M)” value in the assay on SB.mhdgc-1 is -5.43; with SB.msgc-1 it was -4.83.
For `COCCOc1nc(-c2ccc(Cl)c(Cl)c2)n(-c2ccc(NC(=O)CCl)cc2)n1` [MI-2], in that order: -4.73 and -5.08.
The matching figures for `C[C@]\1(CCS\C(=N1)N)C2=CC(=C(F)C=C2F)C3=CN=CN=C3`: -4.73 and -4.63.
The matching figures for `COc1c(C)cnc(Cn2cnc3c(Cl)nc(N)nc32)c1C` [CNF-2024]: -6.33 and -7.18.
Consider `CCCn1c(=O)c2[nH]c(C34CC5CC3C[C@@H](C5)C4)nc2n(CCC)c1=O` [Rolofylline], for which the entries for the “AC50 for growth inhibition (log10 M)” value with SB.mhdgc-1 and with SB.msgc-1 were -4.68 and -4.83, respectively.
For `CCOC(=O)N1CCN(/[N+]([O-])=N/Oc2ccc([N+](=O)[O-])cc2[N+](=O)[O-])CC1`, in that order: -5.23 and -4.88.
Regarding `O=C(C=CC#Cc1cccc(N[S+](=O)([O-])c2ccccc2)c1)NO` [Oxamflatin], the “AC50 for growth inhibition (log10 M)” value in the assay on SB.mhdgc-1 was -5.28; in the assay on SB.msgc-1 it was -5.58.
The matching figures for `N[C@@H](Cc1ccc(N(CCCl)CCCl)cc1)C(=O)O` [Melphalan]: -6.08 and -5.83.
The matching figures for `C[C@@H]1C[C@H]2[C@@H]3\C=C(C)/C4=C/C5=C(C[C@]4(C)[C@H]3[C@@H](O)C[C@]2(C)[C@@]1(O)C(=O)CO)C=N[N]5C6=CC=CC=C6` [Deacetyl cortivazol]: -5.63 and -5.08.
For `CN(C)c1ccc2cc(C(=O)N[C@@H](CCCNC(=N)CCl)C(=O)NCc3ccccc3)ccc2c1` [YW3-56], in that order: -4.78 and -5.03.
As for `CCCC1=NC(=C2[N]1NC(=N\C2=O)/C3=CC(=CC=C3OCC)[S+]([O-])(=O)N4CCN(CC)CC4)C` [Vardenafil], the “AC50 for growth inhibition (log10 M)” value was -4.73 in the assay on SB.mhdgc-1 and -4.83 in the assay with SB.msgc-1.
